The test system of the experiment is Pseudomonas aeruginosa PAM1001. In words: Checkerboard assay (broth microdilution): levofloxacin MIC in presence of efflux pump inhibitor. The format is cell-based. The protocol: Potentiation effect is observed by the reduction of the minimum inhibitory concentration of levofloxacin in the presence of the experimental efflux pump inhibitor. The activity of efflux pump inhibitors (EPI) in combination with fluoroquinolones, such as levofloxacin, is assessed by the checkerboard assay (Antimicrobial Combinations. In Antibiotics in Laboratory Medicine, Ed. Victor Lorian, M.D., Fourth edition, 1996, pp 333-338) using broth microdilution method performed as recommended by the NCCLS (National Committee for Clinical Laboratory Standards (NCCLS). 1997. Methods for Dilution of Antimicrobial Susceptibility Tests for Bacteria That Grow Aerobically—Fourth Edition; Approved Standard. NCCLS Document M7-A4, Vol 17 No.2). The test organism used is Pseudomonas aeruginosa PAM1001. […] The compounds tabulated below are representative of the described invention.
In this assay, multiple dilutions of two drugs, namely the EPI and levofloxacin, are being tested, alone and in combination, at concentrations equal to, above and below their respective minimal inhibitory concentrations (MICs). In the case of EPI, most of these compounds are devoid of intrinsic antimicrobial activity and are tested at the maximum concentration of 40 μg/mL. The MIC of levofloxacin against P. aeruginosa PAM1001 is 4 μg/mL.
The EPI tested are readily soluble in water and stock solutions are prepared at a final concentration of 2 mg/mL. Stock solutions are further diluted, according to the needs of a particular assay, in Mueller Hinton Broth (MHB). Stock solution can be stored at −80° C. Quinolones are solubilized according to the instructions of the manufacturers, at a concentration of 1 mg/mL. They are then further diluted in MB. Stock solution can be stored at −80° C.
The checkerboard assay is performed in microtiter plates. Levofloxacin is diluted in the x axis, each column containing a single concentration of levofloxacin. The EPI is diluted in the y axis, each row containing an equal concentration of EPI. The result of these manipulations is that each well of the microtiter plate contains a unique combination of concentrations of the two agents. Each EPI are tested independently.
The assay is performed in MHB with a final bacterial inoculum of 5×10^5 CFU/mL (from an early-log phase culture). Microtiter plates are incubated during 20 h at 35° C. and are read using a microtiterplate reader (Molecular Devices) at 650 nm as well as visual observation using a microtiter plate reading mirror.
Background: In broth dilution the organism is exposed to a series of concentrations in liquid medium.

The structures appear in SMILES notation.

For `NCCC[C@@H](N)C(=O)N[C@H](CCc1ccccc1)C(O)c1nc2ncccc2o1.O=C(O)C(F)(F)F` (mixture of isomers) [Compound 36, (2R)-2,5-Diamino-N-[(1R)-1-[(RS)-(1-oxazolo[4,5-b]pyridin-2-yl)-hydroxymethyl]-3-phenylpropyl]valeramide Trifluoroacetate], the “Levofloxacin MIC Against P. aeruginosa PAM1001 in Presence of Efflux Pump Inhibitor (EPI), Minimum Inhibitory Concentration” value is, setting by setting: (EPI Conc. 0 μg/mL (levofloxacin alone)) 4 mg/L; (EPI Conc. 0.625 μg/mL) 4 mg/L; (EPI Conc. 1.25 μg/mL) 4 mg/L; (EPI Conc. 2.5 μg/mL) 4 mg/L; (EPI Conc. 5 μg/mL) 4 mg/L; (EPI Conc. 10 μg/mL) 4 mg/L. Further, the “Levofloxacin MIC Against P. aeruginosa PAM1001 in Presence of Efflux Pump Inhibitor (EPI), Minimum Inhibitory Concentration” value runs as follows: (EPI Conc. 20 μg/mL) 2 mg/L; (EPI Conc. 40 μg/mL) 2 mg/L.
As usually defined, the MIC is the least concentration at which growth counts as inhibited. Turning to `C[C@H]1COc2c(N3CCN(C)CC3)c(F)cc3c(=O)c(C(=O)O)cn1c23` [levofloxacin, reference compound], the MIC (Pseudomonas aeruginosa, PAM1001, read-out: MIC of levofloxacin against P. aeruginosa PAM1001) turned out to be 4 mg/L.

(Values after US6436980B1, “Peptidomimetic efflux pump inhibitors” (priority 1998, dated 2002).)
